According to US9737587B2, “Treatment of autism spectrum disorders with ciliary neurotrophic factor peptide mimetic” (The Research Foundation for Mental Hygiene, Inc., priority 2014, dated 2017):
No end group written: not given here.

B1: recombinant CNTF: recombinant full-length ciliary neurotrophic factor (protein, UniProt P26441 1-200, looked up)
chain: MAFTEHSPLTPHRRDLCSRSIWLARKIRSDLTALTESYVKHQGLNKNINLDSADGMPVASTDQWSELTEAERLQENLQAYRTFHVLLARLLEDQQVHFTPTEGDFHQAIHTLLLQVAAFAYQIEELMILLEYKIPRNEADGMPINVGDGGLFEKKLWGLKVLQELSQWTVRSIHDLRFISSHQTGIPARGSHYIANNKKM
modifications: full-length
notes: recombinant full-length ciliary neurotrophic factor

Assays:
[1] = tested on: mice or rats; details: in vivo
[2] = in vivo
[3] = tested on: human; details: human clinical trials; cited from earlier work

Row | Molecule | adverse effects associated with the full-length protein (CNTF) [1] | half-life [2] [h] | adverse effects [3]
1 | VGDGGLFEKKL [Peptide P6, VGDGGLFEKKL] | does not cause adverse effects associated with the full-length protein | > 6 | –
2 | B1 | – | – | anorexia, skeletal muscle loss, hyperalgesia, severe cramps, and muscle pain
